Tests used:
IGROV-ET = test: Inhibition of cells growth by colorimetric assay (SRB); settings: Homo sapiens, 48 h; for GI50: read-out: IGROV-ET GI50; for CC50: read-out: IGROV-ET LC50; for IC (TGI): read-out: IGROV-ET TGI
Summary of the method: (§1)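 Colorimetric SRB read (490 nm) on triplicate wells after 48 h at 37 °C, 5% CO2. Dose range 10 to 10^−8 μg/ml; 5×10^3 cells/well pre-attached 18 h.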

PANC-1 = test: as above; settings: Homo sapiens, PANC-1, 48 h; for GI50: read-out: PANC-1 GI50; for CC50: read-out: PANC-1 LC50; for IC (TGI): read-out: PANC-1 TGI
Summary of the method: as §1

LNCaP = test: as above; settings: Homo sapiens, LNCaP, 48 h; for GI50: read-out: LNCAP GI50; for CC50: read-out: LNCAP LC50; for IC (TGI): read-out: LNCAP TGI
Summary of the method: as §1

IGROV-1 = test: as above; settings: Homo sapiens, IGROV-1, 48 h; for GI50: read-out: IGROV GI50; for CC50: read-out: IGROV LC50; for IC (TGI): read-out: IGROV TGI
Summary of the method: as §1

DU-145 = test: as above; settings: Homo sapiens, DU-145, 48 h; for GI50: read-out: DU145 GI50; for CC50: read-out: DU145 LC50; for IC (TGI): read-out: DU145 TGI
Summary of the method: as §1

SK-BR-3 = test: as above; settings: Homo sapiens, SK-BR-3, 48 h; for GI50: read-out: SK-BR3 GI50; for CC50: read-out: SK-BR3 LC50; for IC (TGI): read-out: SK-BR3 TGI
Summary of the method: as §1

K-562 = test: as above; settings: Homo sapiens, K562, 48 h; for GI50: read-out: K562 GI50; for CC50: read-out: K562 LC50; for IC (TGI): read-out: K562 TGI
Summary of the method: as §1

HeLa-APL = test: as above; settings: Homo sapiens, 48 h; for GI50: read-out: HELA-APL GI50; for CC50: read-out: HELA-APL LC50; for IC (TGI): read-out: HELA-APL TGI
Summary of the method: as §1

HeLa = test: as above; settings: Homo sapiens, HeLa, 48 h; for GI50: read-out: HELA GI50; for CC50: read-out: HELA LC50; for IC (TGI): read-out: HELA TGI
Summary of the method: as §1

SK-MEL-28 = test: as above; settings: Homo sapiens, SK-MEL-28, 48 h; for GI50: read-out: MEL-28 GI50; for CC50: read-out: MEL-28 LC50; for IC (TGI): read-out: MEL-28 TGI
Summary of the method: as §1

LoVo-Dox = test: as above; settings: Homo sapiens, 48 h; for GI50: read-out: LOVO-DOX GI50; for CC50: read-out: LOVO-DOX LC50; for IC (TGI): read-out: LOVO-DOX TGI
Summary of the method: as §1

HT-29 = test: cells; settings: Homo sapiens, HT-29, 48 h; for GI50: read-out: HT29 GI50; for CC50: read-out: HT29 LC50; for IC (TGI): read-out: HT29 TGI
Summary of the method: as §1

LoVo = test: cells; settings: Homo sapiens, LoVo, 48 h; for GI50: read-out: LOVO GI50; for CC50: read-out: LOVO LC50; for IC (TGI): read-out: LOVO TGI
Summary of the method: as §1

A-549 = test: cells; settings: Homo sapiens, A549, 48 h; for GI50: read-out: A549 GI50; for CC50: read-out: A549 LC50; for IC (TGI): read-out: A549 TGI
Summary of the method: as §1

COc1c(C)cc2c(c1O)[C@H]1N[C@@H](C2)[C@H](O)N2C1[C@@H]1SC[C@]3(NCCc4c3[nH]c3ccccc43)C(=O)OC[C@H]2c2c3c(c(C)c(OC(C)=O)c21)OCO3 (stereo partly drawn) [compound 63]
GI50 (IGROV-ET): 75.9 nM
CC50 (IGROV-ET): 13300 nM
IC (TGI) (IGROV-ET): 537 nM
GI50 (PANC-1): 4.6 nM
CC50 (PANC-1): 4270 nM
IC (TGI) (PANC-1): 17.4 nM
GI50 (LNCaP): 2.86 nM
CC50 (LNCaP): 10 nM
IC (TGI) (LNCaP): 5.36 nM
GI50 (IGROV-1): 5.4 nM
CC50 (IGROV-1): 4.49 nM
IC (TGI) (IGROV-1): 15 nM
GI50 (DU-145): 3.48 nM
CC50 (DU-145): 4400 nM
IC (TGI) (DU-145): 7.24 nM
GI50 (SK-BR-3): 3.93 nM
CC50 (SK-BR-3): 198 nM
IC (TGI) (SK-BR-3): 8.98 nM
GI50 (K-562): 3.86 nM
CC50 (K-562): 634 nM
IC (TGI) (K-562): 7.92 nM
GI50 (HeLa-APL): 11 nM
CC50 (HeLa-APL): 150 nM
IC (TGI) (HeLa-APL): 39.8 nM
GI50 (HeLa): 3.16 nM
CC50 (HeLa): 12.5 nM
IC (TGI) (HeLa): 6.29 nM
GI50 (SK-MEL-28): 5.64 nM
CC50 (SK-MEL-28): 52.6 nM
IC (TGI) (SK-MEL-28): 17 nM
GI50 (LoVo-Dox): 398 nM
CC50 (LoVo-Dox): 13500 nM
IC (TGI) (LoVo-Dox): 1090 nM
GI50 (HT-29): 9.17 nM
CC50 (HT-29): 13500 nM
IC (TGI) (HT-29): 327 nM
GI50 (LoVo): 8.63 nM
CC50 (LoVo): 13500 nM
IC (TGI) (LoVo): 54.8 nM
GI50 (A-549): 24 nM
CC50 (A-549): 273 nM
IC (TGI) (A-549): 61.4 nM

COc1ccc2[nH]c3c(c2c1)CCN[C@]31CS[C@@H]2c3c(OC(C)=O)c(C)c4c(c3[C@H](COC1=O)N1C2[C@@H]2N[C@@H](Cc3cc(C)c(OC)c(O)c32)[C@@H]1O)OCO4 (stereo partly drawn) [compound 64]
GI50 (IGROV-ET): 34.8 nM
CC50 (IGROV-ET): 8300 nM
IC (TGI) (IGROV-ET): 171 nM
GI50 (PANC-1): 2.46 nM
CC50 (PANC-1): 13000 nM
IC (TGI) (PANC-1): 10.9 nM
GI50 (LNCaP): 1.02 nM
CC50 (LNCaP): 6.12 nM
IC (TGI) (LNCaP): 2.67 nM
GI50 (IGROV-1): 1.78 nM
CC50 (IGROV-1): 10.9 nM
IC (TGI) (IGROV-1): 4.41 nM
GI50 (DU-145): 2.89 nM
CC50 (DU-145): 13000 nM
IC (TGI) (DU-145): 153 nM
GI50 (SK-BR-3): 0.717 nM
CC50 (SK-BR-3): 13000 nM
IC (TGI) (SK-BR-3): 150 nM
GI50 (K-562): 0.86 nM
CC50 (K-562): 812 nM
IC (TGI) (K-562): 4.71 nM
GI50 (HeLa-APL): 2.39 nM
CC50 (HeLa-APL): 9.63 nM
IC (TGI) (HeLa-APL): 4.8 nM
GI50 (HeLa): 2.4 nM
CC50 (HeLa): 10 nM
IC (TGI) (HeLa): 4.89 nM
GI50 (SK-MEL-28): 2.65 nM
CC50 (SK-MEL-28): 20.5 nM
IC (TGI) (SK-MEL-28): 6.24 nM
GI50 (LoVo-Dox): 320 nM
CC50 (LoVo-Dox): 13000 nM
IC (TGI) (LoVo-Dox): 2760 nM
GI50 (HT-29): 3.58 nM
CC50 (HT-29): 13000 nM
IC (TGI) (HT-29): 13.2 nM
GI50 (LoVo): 4.15 nM
CC50 (LoVo): 12500 nM
IC (TGI) (LoVo): 10.3 nM
GI50 (A-549): 5.19 nM
CC50 (A-549): 1120 nM
IC (TGI) (A-549): 36.6 nM

COc1c(C)cc2c(c1O)[C@H]1N[C@@H](C2)[C@H](O)N2C1[C@@H]1SC[C@]3(NCCc4c3[nH]c3ccc(O)cc43)C(=O)OC[C@H]2c2c3c(c(C)c(OC(C)=O)c21)OCO3 (stereo partly drawn) [compound 65]
GI50 (IGROV-ET): 76 nM
CC50 (IGROV-ET): 3300 nM
IC (TGI) (IGROV-ET): 406 nM
GI50 (PANC-1): 3.99 nM
CC50 (PANC-1): 4250 nM
IC (TGI) (PANC-1): 12.3 nM
GI50 (LNCaP): 0.875 nM
CC50 (LNCaP): 6.16 nM
IC (TGI) (LNCaP): 2.54 nM
GI50 (IGROV-1): 4.07 nM
CC50 (IGROV-1): 2990 nM
IC (TGI) (IGROV-1): 11.4 nM
GI50 (DU-145): 2.63 nM
CC50 (DU-145): 4770 nM
IC (TGI) (DU-145): 6.45 nM
GI50 (SK-BR-3): 2.97 nM
CC50 (SK-BR-3): 209 nM
IC (TGI) (SK-BR-3): 7.66 nM
GI50 (K-562): 1.22 nM
CC50 (K-562): 7800 nM
IC (TGI) (K-562): 13.9 nM
GI50 (HeLa-APL): 2 nM
CC50 (HeLa-APL): 8.46 nM
IC (TGI) (HeLa-APL): 4.1 nM
GI50 (HeLa): 2.34 nM
CC50 (HeLa): 9.99 nM
IC (TGI) (HeLa): 4.82 nM
GI50 (SK-MEL-28): 3.78 nM
CC50 (SK-MEL-28): 42 nM
IC (TGI) (SK-MEL-28): 10.8 nM
GI50 (LoVo-Dox): 399 nM
CC50 (LoVo-Dox): 13200 nM
IC (TGI) (LoVo-Dox): 1050 nM
GI50 (HT-29): 4.51 nM
CC50 (HT-29): 13200 nM
IC (TGI) (HT-29): 196 nM
GI50 (LoVo): 6.78 nM
CC50 (LoVo): 2960 nM
IC (TGI) (LoVo): 36.9 nM
GI50 (A-549): 22.9 nM
CC50 (A-549): 313 nM
IC (TGI) (A-549): 56 nM

Reference: patent US7767659B2, “Synthesis of naturally occurring ecteinascidins and related compounds” (Pharma Mar, S.A., priority 2002, dated 2010)
